BindingDB's records for doi:10.1016/j.bmcl.2005.08.072 (Merck Research Laboratories, 2005)

Molecular target: T1, Dimer of Gag-Pol polyprotein [489-587,Q496K] (Human immunodeficiency virus 1, UniProt P12497, Q496K)
T1 construct: 489-587
Test: Protease Inhibition Assay
Conditions: pH 5.5; 30 °C
Description: Assay of HIV protease inhibition was performed by peptide cleavage using the substrate Val-Ser-Gln-Asn-beta-naphthylalanine*Pro-Ile-Val. Products of the cleavage reaction were quantified by HPLC detection, and data were fit to nonlinear least squares equations for determination of steady-state Michaelis-Menten kinetics.

Row | SMILES | IC50
1 | CC(C)(c1ncc(-c2ccc(Cl)cc2)o1)N1CCN(C[C@@H](O)C[C@@H](Cc2cc3ccncc3s2)C(=O)N[C@H]2c3ccccc3OC[C@H]2O)[C@H](C(=O)NCC(F)(F)F)C1 [(2S)-4-{2-[5-(4-chlorophenyl)-1,3-oxazol-2-yl]propan-2-yl}-1-[(2S,4S)-2-hydroxy-4-{[(3S,4S)-3-hydroxy-3,4-dihydro-2H-1-benzopyran-4-yl]carbamoyl}-4-{thieno[2,3-c]pyridin-2-ylmethyl}butyl]-N-(2,2,2-trifluoroethyl)piperazine-2-carboxamide] | < 0.02 nM
2 | CC(C)(c1ncc(-c2ccc(Cl)cc2)o1)N1CCN(C[C@@H](O)C[C@@H](Cc2cc3c(Cl)cncc3s2)C(=O)N[C@H]2c3ccccc3OC[C@H]2O)[C@H](C(=O)NCC(F)(F)F)C1 [(2S)-4-{2-[5-(4-chlorophenyl)-1,3-oxazol-2-yl]propan-2-yl}-1-[(2S,4S)-4-({4-chlorothieno[2,3-c]pyridin-2-yl}methyl)-2-hydroxy-4-{[(3S,4S)-3-hydroxy-3,4-dihydro-2H-1-benzopyran-4-yl]carbamoyl}butyl]-N-(2,2,2-trifluoroethyl)piperazine-2-carboxamide] | < 0.02 nM
